Results from patent US20200399238A1, “THERAPEUTIC AURONES” (MIDDLE TENNESSEE STATE UNIVERSITY, priority 2016, published 2020).
Read-outs that look alike come from different tables or passages of the source.

Experiments:
[1] = system: Trypanosoma cruzi Tulahuen cells expressing beta-galactosidase; experiment: T. cruzi intracellular assay (beta-galactosidase, L6 host cells); conditions: for IC50: Trypanosoma cruzi, TULAHUEN
Experimental: Trypanosoma cruzi Tulahuen cells expressing beta-galactosidase (Buckner et al., Antimicrob. Agents Chemother. 40 (1996) 2592-2597) were cultured using the L6 cell line as a host cell. Adherent L6 cultures were infected with freshly burst T. cruzi trypomastigotes. Approximately 4-6 days later freshly burst trypomastigotes were collected and used to maintain cultures For assays, trypomastigotes were centrifuged to a loose pellet and incubated for 3 hours to allow the trypomastigote forms to swim out of the pellet. Cells were adjusted for addition to intracellular or extracellular assays. […] For intracellular assays, cells were added to adherent L6 cells using an infection ratio of 1:1 and immediately treated with compounds. At 96 hours incubations, a solution containing chlorophenol-red-B-D-beta-galactopyranosidase (Sigma) and a lysis agent were added. After an additional 2 hour incubation, a spectrophotometer was used to quantify the resulting color change (or lack thereof) which was used to calculate inhibition.
The percentage of cell inhibition was calculated using the formula: Percent Inhibition=1−((Treated Sample value−Medium only value)/(Untreated value−Medium only value))×100. Results are expressed as the mean of two or more independent trials.

[2] = system: Trypanosoma brucei brucei 427 cells; experiment: T. brucei culture and assay (PrestoBlue); assay type: cell-based; conditions: Trypanosoma brucei
[3] = system: rat skeletal muscle cell line, L6; experiment: cells; assay type: cell-based; conditions: Rattus norvegicus
[4] = system: Leishmania amazonensis promastigotes expressing beta-lactamase; experiment: microbe, parasite or virus in culture; assay type: cell-based; conditions: Leishmania amazonensis, read-out: IC50 L. amaz.
[5] = system: C. albicans (ATCC strain 90028); experiment: Antifungal microdilution broth assay (PrestoBlue), C. albicans; assay type: cell-based, Candida albicans; conditions: Candida albicans, 100 μM
Experimental: Sigma-Aldrich) was used as the base medium for testing. […] solution of morpholinepropanesulfonic acid (MOPS; Sigma-Aldrich) was added to the RPMI to a final concentration of 0.165 M for buffering (RPMI-MOPS). This medium was adjusted to a pH of 7.0 with 10 M NaOH and filter sterilized. C. albicans (ATCC strain 90028), C. [NT] strain 66032), and C. tropicalis (ATCC strain 750) were cultured on potato dextrose agar (Sigma-Aldrich) plates, and incubated at 35° C. for 24 hours. For antifungal testing, overnight colonies were adjusted to 1.5×10^3 cells/mL, hereafter referred to as the test inoculum. PrestoBlue® (Life Technologies, Invitrogen, Carlsbad, Calif.), a resazurin-based cell viability reagent that, in metabolically active cells, is reduced from blue, non-fluorescent resazurin, to red, fluorescent resorufin, was used to assess inhibition of yeast growth by the aurones. […] Following addition of aurone, plates were then incubated for 24 hours at 35° C. PrestoBlue was added to a final concentration of 10% in each well and fluorescence read at 560 nm excitation and 590 nm emission, per manufacturer instructions, using a SpectraMax M2e spectrophotometer (Molecular Devices, LLC, Sunnyvale, Calif.). To optimize the PrestoBlue reduction time, RFUs were collected at 15 minute intervals for 4 hours using a reference antifungal. […] IC50 determination was calculated using GraphPad Prism version 7.01 for Windows (GraphPad Software, Inc., La Jolla, Calif.) from the RFUs at dilution points. Calculations were made with a nonlinear regression after transforming the molar concentrations of the aurones into the logarithmic form. Graphing was accomplished utilizing the same program following a four parameter curve fitting sigmoidal plot of the data. All aurones and controls were tested in triplicate and all testing was repeated in at least three independent experiments.

[6] = read-out: IC50 T. cruzi, Table 1, intracellular assay, mean of 2(+) trials (^c one trial)
[7] = Table 1, read-out: IC50 Toxicity (L6)
[8] = Table 1, mean of 2(+) independent trials, read-out: IC50 T. brucei
[9] = read-out: IC50 T. cruzi, Table 2, intracellular assay, mean of 2(+) independent trials
[10] = read-out: IC50 TC-I, Table 3A, weighted means of two or more independent trials
[11] = Table 3A, weighted means of two or more independent trials, read-out: IC50 L6
[12] = ATCC90028, Table 4B, C. albicans, value ± spread, read-out: Percent Inhibition (at 100 μM)
[13] = ATCC90028, Table 4A, read-out: C. albicans inhibition (at 100 μM)
[14] = read-out: IC50 TC-I, Table 3C, intracellular T. cruzi, weighted means of two or more independent trials
[15] = Table 3C, weighted means of two or more independent trials, read-out: IC50 L6

## Cc1ccc(/C=C2\Oc3ccccc3C2=O)cc1 [Aurone 8c, (Z)-2-(4-methylbenzylidene)benzofuran-3(2H)-one]
other
  melting point: 75 to 76 °C
[1]
  activity against T. cruzi: effective against T. cruzi only
[1]; read-out: T. cruzi IC50 dose
  IC50: < 10 µM
[2]; read-out: T. brucei IC50 dose
  IC50: > 50 µM

## O=C1/C(=C/c2cccs2)Oc2c1ccc(O)c2O [Aurone 1001, (Z)-6,7-dihydroxy-2-(thiophen-2-ylmethylene)benzofuran-3(2H)-one]
other
  melting point: 168 to 170 °C
[1]; [6]
  IC50: > 50 µM
[3]; [7]
  IC50: 50.6 µM
[4]
  IC50: 22.9 µM
[2]; [8]
  IC50: 25.3 µM

## O=C1/C(=C/c2cccs2)Oc2cc(O)ccc21 [Aurone 2901, (Z)-6-hydroxy-2-(thiophen-2-ylmethylene)benzofuran-3(2H)-one]
other
  melting point: 300 to 303 °C
[1]; [6]
  IC50: > 50 µM
[3]; [7]
  IC50: > 100 µM
[4]
  IC50: 19.4 µM
[2]; [8]
  IC50: > 50 µM

## Cc1ccc(/C=C2\Oc3cc(O)ccc3C2=O)cc1 [Aurone 2904, (Z)-6-hydroxy-2-(4-methylbenzylidene)benzofuran-3(2H)-one]
other
  melting point: 258 to 264 °C
[1]; [6]
  IC50: > 50 µM
[1]; [9]
  IC50: > 50 µM
[3]; [7]
  IC50: 70.3 µM
[4]
  IC50: 5.63 µM
[2]; [8]
  IC50: > 50 µM

## COc1cc(OC)c2c(c1)O/C(=C\c1ccc(C)cc1)C2=O [Aurone 7000, (Z)-4,6 dimethoxy-2-(4-methylbenzalidene) benzofuran-3(2H)-one]
other
  melting point: 145 to 148 °C

## O=C1/C(=C/c2ccccc2I)Oc2ccccc21 [Aurone 9003, (Z)-2-(2-iodobenzylidene)benzofuran-3(2H)-one]
other
  melting point: 145 to 148 °C
[1]; Table 1, intracellular T. cruzi IC50
  Selectivity L6/Tc: >6.50
[1]; Table 3A, estimated from highest L6 dose tested where no L6 IC50
  Selectivity L6/TC-I: >6.50
[1]; [6]
  IC50: 15.4 µM
[1]; [10]
  IC50: 15.4 µM
[3]; [7]
  IC50: > 100 µM
[3]; [11]
  IC50: > 100 µM
[2]; [8]
  IC50: > 50 µM

## COc1cc(/C=C2\Oc3ccccc3C2=O)ccc1O [Aurone 9053, (Z)-2-(4-hydroxy-3-methoxybenzylidene)benzofuran-3(2H)-one]
[1]; [6]
  IC50: > 50 µM
[1]; [9]
  IC50: > 50 µM
[3]; [7]
  IC50: > 200 µM
[4]
  IC50: 2.15 µM
[5]; [12]
  inhibition at 100 µM: 11.2 ± 2.2%
[2]; [8]
  IC50: > 50 µM

## COc1cccc(/C=C2\Oc3ccccc3C2=O)c1O [Aurone 9055, (Z)-2-(2-hydroxy-3-methoxybenzylidene)benzofuran-3(2H)-one]
[1]; [6]
  IC50: > 50 µM
[3]; [7]
  IC50: > 100 µM
[4]
  IC50: 18.5 µM
[5]; [12]
  inhibition at 100 µM: 16.7 ± 0.2%
[2]; [8]
  IC50: > 50 µM

## COc1ccc(/C=C2\Oc3ccccc3C2=O)cc1O [Aurone 9078, (Z)-2-(3-hydroxy-4-methoxybenzylidene)benzofuran-3(2H)-one]
[3]; [7]
  IC50: 70.7 µM
[4]
  IC50: 1.45 µM
[5]; [12]
  inhibition at 100 µM: 45.6 ± 2.6%
[2]; [8]
  IC50: 41.2 µM

## COc1ccc(/C=C2\Oc3ccccc3C2=O)c(OC)c1OC [Sample 2001]
[1]; [10]
  IC50: > 50 µM
[3]; [11]
  IC50: > 100 µM
[5]; [13]
  inhibition at 100 µM: 21.9%

## COc1cc(/C=C2\Oc3ccccc3C2=O)cc(OC)c1OC [Sample 2002]
[1]; [10]
  IC50: > 50 µM
[3]; [11]
  IC50: > 100 µM
[5]; [13]
  inhibition at 100 µM: 8.8%

## O=C1/C(=C/c2ccc(Br)cc2)Oc2ccccc21 [Sample 2009]
[1]; [10]
  IC50: 11.4 µM
[3]; [11]
  IC50: > 100 µM
[5]; [13]
  inhibition at 100 µM: 12.3%

## O=C1/C(=C/c2ccc([N+](=O)[O-])cc2)Oc2ccccc21 [Sample 2010]
[1]; [10]
  IC50: 20 µM
[3]; [11]
  IC50: 249 µM
[5]; [13]
  inhibition at 100 µM: 3.3%

## COc1ccc(/C=C2\Oc3ccccc3C2=O)cc1OC [Sample 2011]
[1]; [10]
  IC50: 21.9 µM
[3]; [11]
  IC50: 51.9 µM
[5]; [13]
  inhibition at 100 µM: 14.2%

## O=C1/C(=C/C=C/c2ccccc2)Oc2ccccc21 [Sample 2013]
[1]; [14]
  IC50: 14.1 µM
[3]; [15]
  IC50: 58 µM
[5]; [13]
  inhibition at 100 µM: 64.6%

## N#Cc1ccc(/C=C2\Oc3ccccc3C2=O)cc1 [Sample 2014]
[1]; [10]
  IC50: 23.5 µM
[3]; [11]
  IC50: 239 µM
[5]; [13]
  inhibition at 100 µM: 50.5%

## O=C1/C(=C/c2cccc([N+](=O)[O-])c2)Oc2ccccc21 [Sample 2015]
[1]; [10]
  IC50: 22.6 µM
[3]; [11]
  IC50: 226 µM
[5]; [13]
  inhibition at 100 µM: 2.2%

## O=C1/C(=C/c2ccc(-c3ccccc3)cc2)Oc2ccccc21 [Sample 2018]
[1]; [14]
  IC50: 34.4 µM
[3]; [15]
  IC50: 298 µM
[5]; [13]
  inhibition at 100 µM: 59.8%

## CCc1ccc(/C=C2\Oc3ccccc3C2=O)cc1 [Sample 8001]
[1]; [10]
  IC50: 11.4 µM
[3]; [11]
  IC50: > 100 µM
[5]; [13]
  inhibition at 100 µM: 22.8%

## CC(C)c1ccc(/C=C2\Oc3ccccc3C2=O)cc1 [Sample 8002]
[1]; [10]
  IC50: 16.6 µM
[3]; [11]
  IC50: 89 µM
[5]; [13]
  inhibition at 100 µM: 26.6%

## O=C1/C(=C/c2cc(Br)c(Br)s2)Oc2ccccc21 [Sample 9050]
[5]; [13]
  inhibition at 100 µM: 37.4%

## COc1cc(/C=C2\Oc3ccccc3C2=O)ccc1O [Sample 9053]
[1]; [10]
  IC50: > 50 µM
[3]; [11]
  IC50: > 200 µM
[5]; [13]
  inhibition at 100 µM: 11.2%

## COc1cccc(/C=C2\Oc3ccccc3C2=O)c1O [Sample 9055]
[1]; [10]
  IC50: > 50 µM
[3]; [11]
  IC50: > 100 µM
[5]; [13]
  inhibition at 100 µM: 16.7%

## COc1cc(Br)c(/C=C2\Oc3ccccc3C2=O)cc1OC [Sample 9056]
[1]; [10]
  IC50: 36 µM
[3]; [11]
  IC50: > 100 µM
[5]; [13]
  inhibition at 100 µM: 12.5%

## Cc1ccccc1/C=C1\Oc2ccccc2C1=O [Sample 9057]
[1]; [10]
  IC50: 26.3 µM
[3]; [11]
  IC50: 99.6 µM
[5]; [13]
  inhibition at 100 µM: 33.6%

## O=C1/C(=C/c2sccc2Br)Oc2ccccc21 [Sample 9060]
[5]; [13]
  inhibition at 100 µM: 7.5%

## O=C1/C(=C/c2cc(Br)cs2)Oc2ccccc21 [Sample 9061]
[5]; [13]
  inhibition at 100 µM: 3.1%

## O=C1/C(=C/c2c[nH]c3ccccc23)Oc2ccccc21 [Sample 9062]
[5]; [13]
  inhibition at 100 µM: 16.4%

## O=C1/C(=C/c2cccc3[nH]ccc23)Oc2ccccc21 [Sample 9063]
[5]; [13]
  inhibition at 100 µM: 24%

## Cc1cccc(/C=C2\Oc3ccccc3C2=O)c1 [Sample 9064]
[1]; [10]
  IC50: 37.9 µM
[3]; [11]
  IC50: 79.9 µM
[5]; [13]
  inhibition at 100 µM: 32.1%

## O=C1/C(=C/c2ccc(CO)o2)Oc2ccccc21 [Sample 9067]
[5]; [13]
  inhibition at 100 µM: 17.6%

## O=C1/C(=C/c2ccc(O)cc2)Oc2ccccc21 [Sample 9068]
[1]; [10]
  IC50: > 50 µM
[3]; [11]
  IC50: > 100 µM
[5]; [13]
  inhibition at 100 µM: 11.1%

## N#Cc1cccc(/C=C2\Oc3ccccc3C2=O)c1 [Sample 9070]
[1]; [10]
  IC50: 16.7 µM
[3]; [11]
  IC50: > 200 µM
[5]; [13]
  inhibition at 100 µM: 14.7%

## N#Cc1ccc(/C=C2\Oc3cc(O)ccc3C2=O)cc1 [Sample 9076]
[5]; [13]
  inhibition at 100 µM: 7.5%

## COc1ccc(/C=C2\Oc3ccccc3C2=O)cc1O [Sample 9078]
[3]; [11]
  IC50: 70.7 µM
[5]; [13]
  inhibition at 100 µM: 45.6%

## O=C1/C(=C/c2ccc(C(F)(F)F)cc2)Oc2ccccc21 [Sample 9084]
[1]; [10]
  IC50: 9.38 µM
[3]; [11]
  IC50: > 400 µM
[5]; [13]
  inhibition at 100 µM: 17.6%

## O=C1/C(=C/c2cccc(C(F)(F)F)c2)Oc2ccccc21 [Sample 9085]
[1]; [10]
  IC50: 11.1 µM
[3]; [11]
  IC50: 73.4 µM
[5]; [13]
  inhibition at 100 µM: 20.2%

## O=C1/C(=C/c2ccccc2C(F)(F)F)Oc2ccccc21 [Sample 9086]
[1]; [10]
  IC50: 18.5 µM
[3]; [11]
  IC50: 130 µM
[5]; [13]
  inhibition at 100 µM: 14.3%

## CN(C)c1ccc(/C=C2\Oc3ccccc3C2=O)cc1 [Sample 9087]
[1]; [14]
  IC50: 5.38 µM
[3]; [15]
  IC50: 144 µM
[5]; [13]
  inhibition at 100 µM: 31.2%

## O=C1/C(=C/c2ccccc2O)Oc2ccccc21 [Sample 9088]
[1]; [10]
  IC50: 18.4 µM
[3]; [11]
  IC50: > 100 µM
[5]; [13]
  inhibition at 100 µM: 1%
